Where two headings read alike, the source gives them in different places.
Assays:
[1] = target: T1, gp120-CD4 (UniProt P01730+P03375); experiment: gp120-CD4 binding, antigen capture ELISA; design: species or system HIV-1
T1 construct: purchased
Method: Binding of HIV-1RF to PBLs was measured by a p24-based assay (Rice, et al., Proc. Nat'l. Academy of Science USA 90: 9721-9724, (1993)). Briefly, 5×10^5 PBLs were incubated with a concentrated stock of virus for 30 min. at 37° C. in the absence or presence of various concentrations of 624151, the unbound virus was washed away, and the cell-associated virus was solubilized in 1% Triton X-100, 1% BSA and analyzed by the p24 antigen capture assay as previously described. The binding of gp120to CD4 was analyzed using an antigen capture ELISA. All steps of the assay were carried out according to the manufacturer's protocols.
^.dagger. Attachment of HIV1 to fresh human PBLs, binding of gp120 to
CD4, and the effects of compounds on HIV1 RT and protease were quantitate

[2] = tested on: HIV-1 from latently infected U1 cells; experiment: virus production from TNF-α stimulated latently infected U1 cells; assay type: cell-based; conditions: FIG. 3(A); for formation of infectious virus from infected cells: in words
Method: U1 cells latently infected with two copies of HIV-1 proviral DNA per cell (Clous et al., J. Immunol. 142: 431-438, (1989)) were treated with 5 ng/ml tumor necrosis factor-α(TNF-α) for 24 hours to stimulate production of HIV-1 virions, after which various concentrations of 624151 were added to the cultures and incubated for an additional 48 hours. Cultures were analyzed for cell viability by the XTT reduction assay and cells were counted and scored for viability by trypan blue exclusion. Cells pellets were lysed (0.5% Triton X-100, 300 mM NaCl, 50 mM Tris-HCl, pH 7.6, 10 μg/ml each of Leupeptin and aprotinin (Boehringer Mannheim), 1.8 mg/ml iodoacetamide (Sigma Chemical Co., St. Louis, Mo.) and 1.0 mg/ml the protease inhibitor Pefabloc SC (Boehringer Mannheim at 4° C. for 15 min. and then quantitated for viral p24 content by ELISA. Cell-free supernatant samples were collected and analyzed for virus content by p24 ELISA, and infectivity in cultures of 174xCEM cells. Briefly, serial 1/2 dilutions of the supernatant were placed with 5×10^3 174xCEM cells and cultured for 7 days, cell supernatants were analyzed for viral p24 content, and the number of infectious units/ml calculated. In addition, cell free supernatants were centrifuged at 17,000×g for 1 hour at 4° C. to collect virion pellets. Proteins from both the virion and cellular lysates were separated by 4-20% SDS-PAGE (50 μg protein per lane), blotted onto PVDF membranes, reacted with anti-p7 and anti-p24 antisera, and then probed with HRP-conjugated goat anti-rabbit IgG and subsequently viewed with Western Blot Chemiluminescence Reagent (Dupont NEN, Wilmington, Del.).
Once proviral DNA has integrated into the cellular DNA, compounds that act on replicative events during the pre-integrative phase of infection are without effect. However, the zinc fingers as a part of the Pr55^gag and Pr160^gag-pol participate in the post-integrative phase production of progeny infectious virions, and the zinc finger-reactive 624151 should affect those functions. To test this possibility, we evaluated the effects of 624151 on cell viability and the production of viral proteins and infectious virions from U1 cells that latently harbor two copies of HIV-1 proviral DNA. Stimulation of U1 cells with TNF-α results in the production of high levels of p24 and infectious virions.

[3] = tested on: HIV-1RF; experiment: XTT cytoprotection (cytopathicity) anti-HIV assay, CEM-SS cells; assay type: cell-based
Method: Initial anti-HIV screening was performed with CEM-SS cells and HIV-1RFusing the XTT cytoprotection assay as previously described (Weislow et al., J. National Cancer Inst. 81: 577-586, (1989)). HIV-1 isolates included common laboratory stains (RF, IIIB and MN), as well as a panel of HIV-1 clinical isolates (Cushman et al., J. Med. Chem. 37: 3040-3050, (1994)). The pyridone-resistant HIV-1A17 isolate (Nunberg et al., J. Virol., 65: 4887-4892 (1991)) was obtained from Emilio Emini at Merck Sharpe and Dohme Laboratories. Phytohemagglutinin-stimulated human peripheral blood lymphocytes (PBLs) and fresh monocyte-macrophage (Mono/MF) cultures were prepared and utilized in antiviral assays as previously described (Rice et al., Proc. Nat'l. Academy Science, USA 90: 9721-9724, (1993)); (Cushman et al., J. Med. Chem. 37: 3040-3050, (1994)). EC50 values for these cultures indicate the drug concentration that provided a 50% reduction in viral p24 production. […] The compounds can be synthesized according to the teachings of Singh et al., Sulfur Letters 8: 107-114, (1988). […] MT-2, MT-4, U1, HeLa-CD4-LTR-β-gal and 174xCEM cells were obtained from the AIDS Research and Reference Program (National Institute of Allergy and Infectious Disease, National Institutes of Health, Bethesda, Md. USA), as were the HIV-2MS and the AZT-resistant HIV-1G910-6 isolates.
Racemate and enantiomers of the cis-1,1-dioxo[1,2]dithiane-4,5-diol were synthesized and evaluated for antiviral activity in the XTT assay as described hereinabove.

SMILES: O=S1(=O)C[C@H](O)[C@H](O)CS1 (relative stereo) [NSC 624151, cis-1,1-dioxo[1,2]dithiane-4,5-diol]
- inhibition of gp120-CD4 interaction ([1]; in words): did not inhibit
- IC50 ([1]; read-out: gp120-CD4 ID50): > 100 µM
- formation of infectious virus from infected cells [2]: inhibition of the formation of infectious virus from HIV-1 infected cells
- formation of infectious virus from infected cells ([2]; listed as 624151): prevention of the formation of infectious virus from previously infected cells
- minimal effective concentration ([2]; Human immunodeficiency virus 1, 48 h, TNF-α stimulated U1 cells, read-out: concentration (as low as) at which infectious titer of released virions was effectively reduced): 3 µM
- levels of intracellular or extracellular viral p24 ([2]; TNF-α stimulated U1 cells): did not dramatically reduce the levels of intracellular or extracellular viral p24
- EC50 ([3]; Human immunodeficiency virus 1, CEM-SS, CEM-SS cells, HIV-1RF, read-out: XTT Assay EC50): 6.6 µM
- EC50 ([3]; Human immunodeficiency virus 1, CEM-SS, CEM-SS, RF, Table 2, read-out: EC50): 6.6 µM
- EC50 ([3]; Human immunodeficiency virus 1, CEM-SS, Table 5, read-out: EC50 Duplicates): 9.53 µM
- EC50 ([3]; Human immunodeficiency virus 1, CEM-SS, Table 5, read-out: EC50 Mean): 12.2 µM
- EC50 ([3]; Human immunodeficiency virus 1, CEM-SS, XTT cytopathicity assay, Table 4, read-out: Infection EC50 (Mean ± S.D., n = 6)): 7.85 ± 5.5 µM
- EC50 ([3]; Table 5, read-out: EC50 Duplicates): 14.9 µM
- EC50 relative to enantiomer or racemate ([3]; in words): the average of these EC50 s is equivalent to the EC50 for the racemic mixture
